# From patent publication US11780845B2 (Relay Therapeutics, Inc., priority 2019, dated 2023)
# System: SNU-16
# Assay: Cell SNU-16 assay
# Assay type: cell-based
# Details: Homo sapiens, SNU-16, SNU-16 cells
row,IC50 [µM],SMILES
1,≤ 0.1,C#Cc1cc2c(cn1)-c1c(-c3ccc(Oc4nccc(C)n4)c(F)c3)c3c(N)ncnc3n1CCC2 [Example 1477]
2,≤ 0.1,C=CC(=O)Nc1cccc(-c2c(-c3ccc(C(=O)NCC4(F)COC4)cc3)c3c(N)ncnc3n2C)c1 [Example 1030]
3,0.1 to 0.25,CC#Cc1cnc(-c2c(-c3ccc(Oc4nccc(C)n4)c(F)c3)c3c(N)ncnc3n2C)c(C)n1 [Example 1312]
4,1 to 100,Cc1ccnc(Oc2ccc(-c3c(-c4ccc(NCC5CO5)cc4)n(C)c4ncnc(N)c34)cc2)n1 (stereo not shown) [Example 948]
5,0.25 to 1,C=C(C)C(=O)Nc1ccc(-c2cn3ncnc(N)c3c2-c2ccc(C(=O)NC3CCOC3)cc2)cc1 (stereo not shown) [Example 841]
6,0.25 to 1,C=C(C)C(=O)Nc1ccc(-c2c(C3=CC[C@H](S(=O)(=O)N4CCCC4)CC3)c3c(N)ncnc3n2C)cc1 [Example 995]
7,1 to 100,"C=CC(=O)N[C@H]1C[C@H]1c1c(-c2ccc(C(=O)N3CCCC3)cc2)c2c(N)ncnc2n1C (single isomer, unassigned) [Example 975]"
8,0.25 to 1,C=C(C)C(=O)Nc1cc(Cl)c(-c2c(-c3ccc(Oc4nccc(C)n4)cc3)c3c(N)ncnc3n2C)cc1C [Example 1069]
9,1 to 100,C=C(C)C(=O)Nc1ccc(-c2c(-c3ccc(C(=O)N[C@H]4C[C@H](F)C4)c(OC(F)F)c3)c3c(N)ncnc3n2C)cc1 [Example 970]
10,≤ 0.1,C#Cc1cc(OC)c(-c2c(-c3ccc(Oc4nccc(C)n4)c(F)c3)c3c(N)ncnc3n2C)cn1 [Example 1433]
11,1 to 100,C#Cc1cc(C)c(-c2c(-c3ccc(Oc4nccc(C)n4)cc3)c3c(N)ncnc3n2C)cn1 [Example 1073]
12,≤ 0.1,C=C(C)C(=O)Nc1ccc(-c2c(-c3ccc(C(=O)N[C@H]4C[C@@H](F)C4)c(OC)c3)c3c(N)ncnc3n2C)cc1 [Example 964]
13,0.25 to 1,"C=C(C)C(=O)Nc1ccc(-c2nn3ccnc(N)c3c2C2=CC[C@H](C(=O)N3CCCC3)CC2)cc1 (single isomer, unassigned) [Example 869]"
14,1 to 100,C=C(C)C(=O)Nc1ccc(-c2nn3ccnc(N)c3c2-c2ccc(C(=O)N3CCCC3)cc2)cc1 [Example 862]
15,≤ 0.1,C=C(C)C(=O)Nc1ccc(-c2c(-c3ccc(C(=O)NCC4CCC4)c(OC)n3)c3c(N)ncnc3n2C)cc1 [Example 983]
16,1 to 100,C=C(C)C(=O)Nc1ccc(-c2c(-c3ccc4[nH]ncc4c3)c3c(N)ncnc3n2C)cc1 [Example 1390]
17,≤ 0.1,C#Cc1cc(C(F)F)c(-c2c(-c3ccc(Oc4nccc(C)n4)c(F)c3)c3c(N)ncnc3n2C)cn1 [Example 1253]
18,≤ 0.1,C=CC(=O)Nc1ccc(-c2c(-c3ccc(O)cc3)c3c(N)ncnc3n2C)cc1 [Example 1120]
19,1 to 100,C=CC(=O)N1CCC(c2c(-c3ccc(N4CCCC4=O)nc3)c3c(N)ncnc3n2C)C1 (stereo not shown) [Example 798]
20,≤ 0.1,"C=C(C)C(=O)Nc1ccc(-c2c(C3=CC[C@H](C(=O)NC4CCCC4)CC3)c3c(N)ncnc3n2C)cc1 (single isomer, unassigned) [Example 957]"
21,1 to 100,C=C(C)C(=O)Nc1ccc(-c2[nH]c3ncnc(N)c3c2-c2ccc(Oc3cccc(C)n3)cc2)nc1 [Example 857]
22,0.1 to 0.25,"C#Cc1cc(C)c(-c2c(C3=CC[C@H](C(=O)N4CCCC4=O)CC3)c3c(N)ncnc3n2C)cn1 (single isomer, unassigned) [Example 1240]"
23,1 to 100,C=C(C)C(=O)Nc1ccc(-c2c(-c3cccc(N)c3)c3c(N)ncnc3n2C)cc1 [Example 1299]
24,≤ 0.1,C=CC(=O)Nc1ccc(-c2cn3ncnc(N)c3c2-c2ccc(C(=O)NCC(F)(F)F)cc2)cc1 [Example 838]
25,≤ 0.1,"C#Cc1ccc(-c2c(C3=CC[C@@H](C(=O)N4CCC[C@H]4C#C)CC3)c3c(N)ncnc3n2C)c(C)n1 (single isomer, unassigned) [Example 1230]"
26,0.25 to 1,Cc1ccnc(Oc2ccc(-c3c(-c4ccc(C)nc4C)n(C)c4ncnc(N)c34)cc2F)n1 [Example 1206]
27,≤ 0.1,C#Cc1ncc2cc(-c3c(-c4ccc(Oc5nccc(C)n5)c(F)c4)c4c(N)ncnc4n3C)n(C)c2n1 [Example 1411]
28,0.1 to 0.25,C=CC(=O)N[C@@H]1CC=C(c2c(-c3ccc(Oc4nccc(C)n4)c(F)c3)c3c(N)ncnc3n2C)CC1 [Example 1376]

# Same assay, conditions: SNU-16 cells
row,IC50 [µM],SMILES
1,0.25 to 1,"C#Cc1cc(OC)c(-c2c(-c3ccc(Oc4nccc(C)n4)c(F)c3)c3c(C)ncnc3n2C)c(C)n1 (atropisomer, axis not shown) [Example 1460]"

# Target: FGFR2 (Homo sapiens (Human), UniProt P21802)
# Assay: Biochemical FGFR2 Caliper assay
# Details: not given
# Sequence of FGFR2 (P21802 22-821): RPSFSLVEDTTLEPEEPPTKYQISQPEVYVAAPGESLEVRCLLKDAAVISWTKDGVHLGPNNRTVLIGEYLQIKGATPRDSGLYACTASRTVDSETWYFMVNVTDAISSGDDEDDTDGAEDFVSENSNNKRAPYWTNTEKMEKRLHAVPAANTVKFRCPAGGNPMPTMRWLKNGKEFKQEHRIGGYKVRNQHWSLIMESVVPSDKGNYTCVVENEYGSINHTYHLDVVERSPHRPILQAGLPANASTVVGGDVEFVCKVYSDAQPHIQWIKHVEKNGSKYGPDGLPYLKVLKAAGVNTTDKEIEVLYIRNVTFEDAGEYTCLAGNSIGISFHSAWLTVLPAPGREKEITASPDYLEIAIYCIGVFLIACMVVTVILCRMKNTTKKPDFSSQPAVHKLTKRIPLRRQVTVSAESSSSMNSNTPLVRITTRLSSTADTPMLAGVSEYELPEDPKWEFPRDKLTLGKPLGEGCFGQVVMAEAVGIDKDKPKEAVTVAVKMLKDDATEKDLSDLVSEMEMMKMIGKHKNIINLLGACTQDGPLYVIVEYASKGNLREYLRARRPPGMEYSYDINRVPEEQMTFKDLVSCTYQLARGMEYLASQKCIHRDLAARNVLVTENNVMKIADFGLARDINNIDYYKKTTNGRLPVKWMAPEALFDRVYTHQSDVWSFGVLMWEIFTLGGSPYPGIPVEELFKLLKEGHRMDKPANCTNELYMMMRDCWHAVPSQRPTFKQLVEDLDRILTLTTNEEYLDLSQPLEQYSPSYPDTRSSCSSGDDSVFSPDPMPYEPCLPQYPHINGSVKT
row,IC50 [µM],SMILES
1,< 0.1,C#Cc1cc2c(cn1)-c1c(-c3ccc(Oc4nccc(C)n4)c(F)c3)c3c(N)ncnc3n1CCC2 [Example 1477]
2,< 0.1,C=CC(=O)Nc1cccc(-c2c(-c3ccc(C(=O)NCC4(F)COC4)cc3)c3c(N)ncnc3n2C)c1 [Example 1030]
3,0.25 to 1,CC#Cc1cnc(-c2c(-c3ccc(Oc4nccc(C)n4)c(F)c3)c3c(N)ncnc3n2C)c(C)n1 [Example 1312]
4,1 to 100,Cc1ccnc(Oc2ccc(-c3c(-c4ccc(NCC5CO5)cc4)n(C)c4ncnc(N)c34)cc2)n1 (stereo not shown) [Example 948]
5,0.25 to 1,C=C(C)C(=O)Nc1ccc(-c2cn3ncnc(N)c3c2-c2ccc(C(=O)NC3CCOC3)cc2)cc1 (stereo not shown) [Example 841]
6,1 to 100,C=C(C)C(=O)Nc1ccc(-c2c(C3=CC[C@H](S(=O)(=O)N4CCCC4)CC3)c3c(N)ncnc3n2C)cc1 [Example 995]
7,1 to 100,"C=CC(=O)N[C@H]1C[C@H]1c1c(-c2ccc(C(=O)N3CCCC3)cc2)c2c(N)ncnc2n1C (single isomer, unassigned) [Example 975]"
8,0.25 to 1,C=C(C)C(=O)Nc1cc(Cl)c(-c2c(-c3ccc(Oc4nccc(C)n4)cc3)c3c(N)ncnc3n2C)cc1C [Example 1069]
9,1 to 100,C=C(C)C(=O)Nc1ccc(-c2c(-c3ccc(C(=O)N[C@H]4C[C@H](F)C4)c(OC(F)F)c3)c3c(N)ncnc3n2C)cc1 [Example 970]
10,< 0.1,C#Cc1cc(OC)c(-c2c(-c3ccc(Oc4nccc(C)n4)c(F)c3)c3c(N)ncnc3n2C)cn1 [Example 1433]
11,1 to 100,C#Cc1cc(C)c(-c2c(-c3ccc(Oc4nccc(C)n4)cc3)c3c(N)ncnc3n2C)cn1 [Example 1073]
12,< 0.1,C=C(C)C(=O)Nc1ccc(-c2c(-c3ccc(C(=O)N[C@H]4C[C@@H](F)C4)c(OC)c3)c3c(N)ncnc3n2C)cc1 [Example 964]
13,1 to 100,"C=C(C)C(=O)Nc1ccc(-c2nn3ccnc(N)c3c2C2=CC[C@H](C(=O)N3CCCC3)CC2)cc1 (single isomer, unassigned) [Example 869]"
14,1 to 100,C=C(C)C(=O)Nc1ccc(-c2nn3ccnc(N)c3c2-c2ccc(C(=O)N3CCCC3)cc2)cc1 [Example 862]
15,< 0.1,C=C(C)C(=O)Nc1ccc(-c2c(-c3ccc(C(=O)NCC4CCC4)c(OC)n3)c3c(N)ncnc3n2C)cc1 [Example 983]
16,1 to 100,C=C(C)C(=O)Nc1ccc(-c2c(-c3ccc4[nH]ncc4c3)c3c(N)ncnc3n2C)cc1 [Example 1390]
17,< 0.1,C#Cc1cc(C(F)F)c(-c2c(-c3ccc(Oc4nccc(C)n4)c(F)c3)c3c(N)ncnc3n2C)cn1 [Example 1253]
18,< 0.1,C=CC(=O)Nc1ccc(-c2c(-c3ccc(O)cc3)c3c(N)ncnc3n2C)cc1 [Example 1120]
19,0.25 to 1,C=CC(=O)N1CCC(c2c(-c3ccc(N4CCCC4=O)nc3)c3c(N)ncnc3n2C)C1 (stereo not shown) [Example 798]
20,0.1 to 0.25,"C=C(C)C(=O)Nc1ccc(-c2c(C3=CC[C@H](C(=O)NC4CCCC4)CC3)c3c(N)ncnc3n2C)cc1 (single isomer, unassigned) [Example 957]"
21,1 to 100,C=C(C)C(=O)Nc1ccc(-c2[nH]c3ncnc(N)c3c2-c2ccc(Oc3cccc(C)n3)cc2)nc1 [Example 857]
22,0.1 to 0.25,"C#Cc1cc(C)c(-c2c(C3=CC[C@H](C(=O)N4CCCC4=O)CC3)c3c(N)ncnc3n2C)cn1 (single isomer, unassigned) [Example 1240]"
23,1 to 100,C=C(C)C(=O)Nc1ccc(-c2c(-c3cccc(N)c3)c3c(N)ncnc3n2C)cc1 [Example 1299]
24,< 0.1,C=CC(=O)Nc1ccc(-c2cn3ncnc(N)c3c2-c2ccc(C(=O)NCC(F)(F)F)cc2)cc1 [Example 838]
25,< 0.1,"C#Cc1ccc(-c2c(C3=CC[C@@H](C(=O)N4CCC[C@H]4C#C)CC3)c3c(N)ncnc3n2C)c(C)n1 (single isomer, unassigned) [Example 1230]"
26,0.25 to 1,Cc1ccnc(Oc2ccc(-c3c(-c4ccc(C)nc4C)n(C)c4ncnc(N)c34)cc2F)n1 [Example 1206]
27,< 0.1,C#Cc1ncc2cc(-c3c(-c4ccc(Oc5nccc(C)n5)c(F)c4)c4c(N)ncnc4n3C)n(C)c2n1 [Example 1411]
28,0.25 to 1,C=CC(=O)N[C@@H]1CC=C(c2c(-c3ccc(Oc4nccc(C)n4)c(F)c3)c3c(N)ncnc3n2C)CC1 [Example 1376]
29,1 to 100,"C#Cc1cc(OC)c(-c2c(-c3ccc(Oc4nccc(C)n4)c(F)c3)c3c(C)ncnc3n2C)c(C)n1 (atropisomer, axis not shown) [Example 1460]"
